The text below walks through data of ChEMBL document CHEMBL1759909, “Discovery of 3-aryl-5-acylpiperazinyl-pyrazoles as antagonists to the NK3 receptor” (Bioorg Med Chem Lett, 2011).

Data set [1] is described as follows: in vitro. As to conditions: rat, plasma.
A short description of data set [2]: in vitro. As to conditions: rat, liver microsomes. For orientation: Microsomes from liver hold many membrane-bound enzymes, among them those of drug oxidation.
Data set [3] in a line: in vivo. As to conditions: Sprague-Dawley, rat, iv, 1 mg/kg.
Data set [4] is filed under the species Rattus norvegicus. As to conditions: in vivo, po, 3 mg/kg.
A short description of data set [5]: in vivo. As to conditions: Sprague-Dawley, rat.
Data set [6] can be described thus: in vivo. As to conditions: CD1, mouse, brain/plasma, ip, 5 mg/kg.
Data set [7] can be described thus: in vivo. As to conditions: CD1, mouse, brain, ip, 5 mg/kg.
Data set [8] is filed under the species Rattus norvegicus. As to conditions: in vivo, po, 3 mg/kg. The source holds these as a separate data set.
Data set [9] in a line: in vivo. As to conditions: Sprague-Dawley, rat, po, 3 mg/kg.
Data set [10] in a line: in vivo. As to conditions: Sprague-Dawley, rat, plasma, po, 3 mg/kg.
Data set [11] can be described thus: in vivo. As to conditions: Sprague-Dawley, rat, iv, 1 mg/kg. The source holds these as a separate data set.

The share remaining is what is left of the initial amount, in per cent. The half-life is how long it takes for the measured level to halve. On to `COc1ccccc1N1CCN(C(=O)c2cc(-c3ccc(Cl)cc3)n[nH]2)[C@@H](C)C1`, for which, in data set [1], the amount remaining at 1 h came out at 100%. This molecule also had a half-life in data set [2] of 2 min.
As a reminder, the Vd is the apparent volume that relates the amount in the body to the concentration in plasma or blood. One may read the AUC as the area under the concentration-time curve, a measure of exposure. High values mean more exposure, low ones less exposure. By Kp is commonly meant the ratio of the level in a tissue or fluid to that in plasma or blood. `COc1ccccc1N1CCN(C(=O)c2cc(-c3ccc(Cl)cc3)n(C)n2)CC1` returned a distribution volume (Vd) in data set [3] of 3.3 L/kg. In [4], the AUC was found to be 90501 ng·min/mL. This molecule showed an amount remaining at 1 h in [1] of 100%. Also, the half-life turned out to be 310 min in data set [5] and 40 min in [2]. The Kp at 10 min in data set [6] was 0.64. The concentration at 10 min in data set [7] came out at 1700 ng/g. The molecule also gave a F in [8] of 53%.
In data set [1], `COc1ccccc1N1CCN(C(=O)c2cc(-c3ccc(Cl)cc3Cl)n[nH]2)CC1` showed a fraction remaining at 1 h of 5%. Further, the half-life in data set [2] turned out to be 45 min.
The term bioavailability denotes the share of a dose that reaches the circulation, judged against a reference dose that is usually intravenous. Low readings indicate little systemic uptake, high ones much systemic uptake. Broadly, the clearance is a measure of how efficiently the substance is removed, as volume per time. Low readings indicate a low capacity for elimination, high ones a high capacity for elimination. `CC(=O)N(C)C1(c2ccccc2)CCN(CCC[C@]2(c3ccc(Cl)c(Cl)c3)CCCN(C(=O)c3ccccc3)C2)CC1` [OSANETANT] yielded a Vd in data set [3] of 8.7 L/kg. The molecule further had a bioavailability in data set [9] of 17%. Also, the AUC in data set [10] was 114 ng·h/mL. The half-life worked out at 110 min in data set [5] and 23 min in data set [2]. Further, the Kp at 10 min in data set [6] was found to be 0.03. The clearance in [11] stood at 57 mL/min/kg. This molecule also came in with a concentration at 10 min in [7] of 30 ng/g.
The molecule `CC[C@H](NC(=O)c1c(O)c(-c2ccccc2)nc2ccccc12)c1ccccc1` [TALNETANT] displayed a Vd in [3] of 1.4 L/kg. This molecule also registered a fraction remaining at 1 h in data set [1] of 100%. In data set [9], this molecule showed a bioavailability of 53%. The molecule also showed an AUC in data set [10] of 15600 ng·h/mL. The half-life worked out at 450 min in data set [5] and 60 min in data set [2]. The molecule also came in with a Kp at 10 min in [6] of 0.07. In data set [11], the clearance is 1.9 mL/min/kg. Further, the concentration at 10 min in data set [7] was 340 ng/g.
